Laboratory results as given in patent US20100285145A1, “GPR 119 MODULATORS” (PFIZER INC, priority 2009, published 2010).
“And” between values parts separate entries of the source, which are not always exact repeats. Identical values can stand only once.

Experiments:
[1] = biological target: T1, human GPR119 (Homo sapiens, UniProt Q8TDV5); assay: cAMP HTRF functional assay (hGPR119 HEK-CRE beta-lactamase cells); format: cell-based; set-up: host or cells: HEK293-CRE beta-lactamase; conditions: for Emax: read-out: Intrinsic Activity (Human cAMP)
T1 sequence (Q8TDV5 1-335): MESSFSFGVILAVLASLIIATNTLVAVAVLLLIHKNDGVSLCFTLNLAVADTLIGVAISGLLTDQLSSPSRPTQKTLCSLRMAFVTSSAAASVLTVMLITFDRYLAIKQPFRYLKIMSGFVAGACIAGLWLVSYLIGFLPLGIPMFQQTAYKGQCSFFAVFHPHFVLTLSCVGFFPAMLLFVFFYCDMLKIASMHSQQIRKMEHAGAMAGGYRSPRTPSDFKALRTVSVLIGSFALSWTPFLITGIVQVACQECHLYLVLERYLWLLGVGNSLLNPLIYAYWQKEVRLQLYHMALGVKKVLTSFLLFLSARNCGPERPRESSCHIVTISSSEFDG
Procedure: GPR119 agonist activity was also determined with a cell-based assay utilizing an HTRF (Homogeneous Time-Resolved Fluorescence) cAMP detection kit (cAMP dynamic 2 Assay Kit; Cis Bio cat #62AM4PEC) that measures cAMP levels in the cell. The method is a competitive immunoassay between native cAMP produced by the cells and the cAMP labeled with the dye d2. The tracer binding is visualized by a Mab anti-cAMP labeled with Cryptate. The specific signal (i.e. energy transfer) is inversely proportional to the concentration of cAMP in either standard or sample.
Specifically, hGPR119 HEK-CRE beta-lactamase cells (Invitrogen 2.5×10^7/mL; the same cell line used in the beta-lactamase assay described above) are removed from cryopreservation and diluted in growth medium (Dulbecco's modified Eagle medium high glucose (DMEM; Gibco Cat # 11995-065), 1% charcoal dextran treated fetal bovine serum (CD serum; HyClone Cat # SH30068.03), 1×MEM Nonessential amino acids (Gibco Cat # 15630-080) and 25 mM HEPES pH 7.0 (Gibco Cat # 15630-080)). The cell concentration was adjusted to 1.5×10^5 cells/mL and 30 mLs of this suspension was added to a T-175 flask and incubated at 37 degrees Celsius in a humidified environment in 5% carbon dioxide. After 16 hours (overnight), the cells were removed from the T-175 flask (by rapping the side of the flask), centrifuged at 800×g and then re-suspended in assay medium (1×HBSS+CaCl2+MgCl2 (Gibco Cat # 14025-092) and 25 mM HEPES pH 7.0 (Gibco Cat # 15630-080)). The cell concentration was adjusted to 6.25×10^5 cells/mL with assay medium and 8 μl of this cell suspension (5000 cells) was added to each well of a white Greiner 384-well, low-volume assay plate (VWR cat #82051-458).
Varying concentrations of each compound to be tested were diluted in assay buffer containing 3-isobutyl-1-methylxanthin (IBMX; Sigma cat #15879) and added to the assay plate wells in a volume of 2 microL (final IBMX concentration was 400 microM and final DMSO concentration was 0.58%). Following 30 minutes incubation at room temperature, 5 microL of labeled d2 cAMP and 5 microL of anti-cAMP antibody (both diluted 1:20 in cell lysis buffer; as described in the manufacturers assay protocol) were added to each well of the assay plate. The plates were then incubated at room temperature and after 60 minutes, changes in the HTRF signal were read with an Envision 2104 multilabel plate reader using excitation of 330 nm and emissions of 615 and 665 nm. Raw data were converted to nM cAMP by interpolation from a cAMP standard curve (as described in the manufacturer's assay protocol) and EC50 determinations were made from an agonist-response curves analyzed with a curve fitting program using a 4-parameter logistic dose response equation.

[2] = biological target: T1, human GPR119; assay: GPR119 radioligand binding assay ([3H]-Compound A or B, membranes of HEK 293FT cells expressing hGPR119); set-up: host or cells: HEK293-CRE beta-lactamase; conditions: calculated from IC50 with Cheng-Prusoff; each line a separate determination
Procedure: HEK 293FT cells (Invitrogen, Carlsbad, Calif.) were grown in a shake flask in 293Freestyle medium (Invitrogen) supplemented with 50 microg/mL neomycin and 10 mM HEPES (37C, 8% carbon dioxide, shaking). The cells were centrifuged gently (approximately 500×g, 10 minutes) and the pellet resuspended in a mixture of Dulbecco's PBS (minus Mg++/−Ca++) supplemented with 18% fetal bovine serum (Sigma Aldrich) and P1 virus such that the multiplicity of infection (MOI) was 10 and the final cell density was 1.3×10^6/mL (total volume 2.5 liters). The cells were transferred to a 5 liter Wave Bioreactor Wavebag (Wave Technologies, Mass.) and incubated for 4 hours at 27 degrees Celsius (17 rocks/min, 7 degrees platform angle); at the end of the incubation period, an equal volume (2.5 liters) of 293Freestyle medium supplemented with 30 mM sodium butyrate (Sigma Aldrich) was added (final concentration=15 mM), and the cells were grown for 20 hours (37 degrees Celsius, 8% CO2 [0.2 liters/min}, 25 rocks/minute, 7 degrees platform angle). Cells were harvested via centrifugation (3,000×g, 10 minutes), washed once on DPBS (minus Ca++/Mg++), resuspended in 0.25M sucrose, 25 mM HEPES, 0.5 mM EDTA, pH 7.4 and frozen at −80 degrees Celsius.
The frozen cells were thawed on ice and centrifuged at 700×g (1400 rpm) for 10 minutes at 4 degrees Celsius. The cell pellet was resuspended in 20 mL phosphate-buffered saline, and centrifuged at 1400 rpm for 10 minutes. The cell pellet was then resuspended in homogenization buffer (10 mM HEPES (Gibco #15630), pH 7.5, 1 mM EDTA (BioSolutions, #BIO260-15), 1 mM EGTA (Sigma, #E-4378), 0.01 mg/mL benzamidine (Sigma #B 6506), 0.01 mg/mL bacitracin (Sigma #B 0125), 0.005 mg/mL leupeptin (Sigma #L 8511), 0.005 mg/mL aprotinin (Sigma #A 1153)) and incubated on ice for 10 minutes. Cells were then lysed with 15 gentle strokes of a tight-fitting glass Dounce homogenizer. The homogenate was centrifuged at 1000×g (2200 rpm) for 10 minutes at 4 degrees Celsius. The supernatant was transferred into fresh centrifuge tubes on ice. The cell pellet was resuspended in homogenization buffer, and centrifuged again at 1000×g (2200 rpm) for 10 minutes at 4 degrees Celsius after which the supernatant was removed and the pellet resuspended in homogenization buffer. This process was repeated a third time, after which the supernatants were combined, Benzonase (Novagen # 71206) and MgCl2 (Fluka #63020) were added to final concentrations of 1 U/mL and 6 mM, respectively, and incubated on ice for one hour. The solution was then centrifuged at 25,000×g (15000 rpm) for 20 minutes at 4 degrees Celsius, the supernatant was discarded, and the pellet was resuspended in fresh homogenization buffer (minus Benzonase and MgCl2). After repeating the 25,000×g centrifugation step, the final membrane pellet was resuspended in homogenization buffer and frozen at −80 degrees Celsius. The protein concentration was determined using the Pierce BCA protein assay kit (Pierce reagents A #23223 and B #23224).
Test compounds were serially diluted in 100% DMSO (J. T. Baker #922401). 2 microL of each dilution was added to appropriate wells of a 96-well plate (each concentration in triplicate). Unlabeled Compound A (or Compound B), at a final concentration of 10 microM, was used to determine non-specific binding. [^3H]-Compound A (or [^3H]-Compound B) was diluted in binding buffer (50 mM Tris-HCl, pH 7.5, (Sigma #T7443), 10 mM MgCl2 (Fluka 63020), 1 mM EDTA (BioSolutions #BIO260-15), 0.15% bovine serum albumin (Sigma #A7511), 0.01 mg/mL benzamidine (Sigma #B 6506), 0.01 mg/mL bacitracin (Sigma #B 0125), 0.005 mg/mL leupeptin (Sigma #L 8511), 0.005 mg/mL aprotinin (Sigma #A 1153)) to a concentration of 60 nM, and 100 microL added to all wells of 96-well plate (Nalge Nunc # 267245). […]

[3] = biological target: T1, human GPR119; assay: β-Arrestin PathHunter assay (U2OS hGPR119 β-arrestin cells); format: cell-based
Procedure: GPR119 agonist activity was also determined with a cell-based assay utilizing DiscoverX PathHunter β-arrestin cell assay technology and their U2OS hGPR119 β-arrestin cell line (DiscoverX Cat # 93-0356C3). In this assay, agonist activation is determined by measuring agonist-induced interaction of β-arrestin with activated GPR119. A small, 42 amino acid enzyme fragment, called ProLink was appended to the C-terminus of GPR119. Arrestin was fused to the larger enzyme fragment, termed EA (Enzyme Acceptor). Activation of GPR119 stimulates binding of arrestin and forces the complementation of the two enzyme fragments, resulting in formation of a functional β-galactosidase enzyme capable of hydrolyzing substrate and generating a chemiluminescent signal.
Specifically, U2OS hGPR119 β-arrestin cells (DiscoverX 1×10^7/mL) are removed from cryopreservation and diluted in growth medium (Minimum essential medium (MEM; Gibco Cat # 11095-080), 10% heat inactivated fetal bovine serum (HIFBS; Sigma Cat # F4135-100), […] sodium pyruvate (Sigma Cat # S8636), 500 microg/mL G418 (Sigma Cat # G8168) and 250 microg/mL Hygromycin B (Invitrogen Cat # 10687-010). The cell concentration was adjusted to 1.66×10^5 cells/mL and 30 mLs of this suspension was added to a T-175 flask and incubated at 37 degrees Celsius in a humidified environment in 5% carbon dioxide. After 24 hours, the cells were removed from the T-175 flask with enzyme-free cell dissociation buffer (Gibco cat #13151-014), centrifuged at 800×g and then re-suspended in plating medium (Opti-MEM I (Invitrogen/BRL Cat # 31985-070) and 2% charcoal dextran treated fetal bovine serum (CD serum; HyClone Cat # SH30068.03).
The cell concentration was adjusted to 2.5×10^5 cells/mL with plating medium and 20 microliters of this cell suspension (5000 cells) was added to each well of a white Greiner 384-well low volume assay plate (VWR cat #82051-458) and the plates were incubated at 37 degrees Celsius in a humidified environment in 5% carbon dioxide.
After 16 hours (overnight) the assay plates were removed from the incubator and varying concentrations of each compound to be tested (diluted in assay buffer (1×HBSS+CaCl2+MgCl2 (Gibco Cat # 14025-092), 20 mM HEPES pH 7.0 (Gibco Cat # 15630-080) and 0.1% BSA (Sigma Cat # A9576)) were added to the assay plate wells in a volume of 5 microliters (final DMSO concentration was 0.5%). After a 90 minute incubation at 37 degrees Celsius in a humidified environment in 5% carbon dioxide, 12 microliters of Galacton Star β-galactosidase substrate (PathHunter Detection Kit (DiscoveRx Cat # 93-0001); prepared as described in the manufacturers assay protocol) was added to each well of the assay plate. The plates were incubated at room temperature and after 60 minutes, changes in the luminescence were read with an Envision 2104 multilabel plate reader at 0.1 seconds per well. EC50 determinations were made from an agonist-response curves analyzed with a curve fitting program using a 4-parameter logistic dose response equation.

[4] = HTRF cAMP, 30 min, 400 microM IBMX, each line a separate determination
[5] = percent of maximal activity relative to standard GPR119 agonist at 10 micromolar
[6] = marked **: curve was extrapolated to 100%

Row | SMILES | EC50 [1, 4] | Intrinsic Activity (Human cAMP) [1, 5] | Emax [1, 5] | Ki [2] | EC50 ([1]; curve was extrapolated to 100% to calculate an EC50) | Intrinsic Activity (Human cAMP) [1, 6] | Emax [1, 6] | EC50 ([3]; U2OS hGPR119 β-arrestin cells, 90 min, each line a separate determination, read-out: Human B-arrestin Functional EC50) | Emax ([3]; U2OS, percent of maximal activity relative to standard GPR119 agonist at 10 micromolar, read-out: Intrinsic Activity (Human B-arrestin))
1 | Cc1c(OC2CCN(C(=O)OC3(C)CC3)CC2F)ncnc1N1CCc2cc(C(N)=O)ccc21 (racemic) [Example 20, 1-Methylcyclopropyl 4-{[6-(5-carbamoyl-2,3-dihydro-1H-indol-1-yl)-5-methylpyrimidin-4-yl]oxy}-3-fluoropiperidine-1-carboxylate (racemic)] | 493 nM and 765 nM and 1050 nM | 91.6% and 98% | 81.5% | 1710 nM |  |  |  |  | 
2 | Cc1c(O[C@@H]2CCN(C(=O)OC3(C)CC3)C[C@@H]2F)ncnc1N1CCc2nnccc21 [Example 31, 1-Methylcyclopropyl (3S,4R)-4-{[6-(6,7-dihydro-5H-pyrrolo[3,2-c]pyridazin-5-yl)-5-methylpyrimidin-4-yl]oxy}-3-fluoropiperidine-1-carboxylate] |  |  |  | 618 nM | 4820 nM and 5890 nM and 6100 nM | 100** % | 100% |  | 
3 | Cc1c(O[C@@H]2CCN(C(=O)OC(C)(C)C)C[C@@H]2F)ncnc1N1CCc2nnccc21 [Example 30, tert-Butyl (3S,4R)-4-{[6-(6,7-dihydro-5H-pyrrolo[3,2-c]pyridazin-5-yl)-5-methylpyrimidin-4-yl]oxy}-3-fluoropiperidine-1-carboxylate] | 549 nM and 520 nM | 28% | 28% | > 8150 nM |  |  |  |  | 
4 | Cc1c(O[C@H]2CCN(C(=O)OC3(C)CC3)C[C@H]2F)ncnc1N1CCc2ncccc21 (racemic) [Example 19, 1-Methylcyclopropyl (3R,4S)-4-{[6-(2,3-dihydro-1H-pyrrolo[3,2-b]pyridin-1-yl)-5-methylpyrimidin-4-yl]oxy}-3-fluoropiperidine-1-carboxylate (racemic)] | 19.4 nM |  | 57.9% |  |  |  |  | 6.31 nM | 74%
